Data published in patent US20230123334A1, “AMINO LIPID COMPOUND, PREPARATION METHOD THEREFOR, AND APPLICATION THEREOF” (SHENZHEN SHENXIN BIOTECHNOLOGY CO., LTD., priority 2020, published 2023).

How the values were obtained:
HEK293 cells [1] = assay: Preliminary screening as mRNA vectors, EGFP mRNA transfection of HEK293 cells; format: cell-based; details: HEK293 cells, 96-well plates, EGFP mRNA 50 ng per well; percentage of GFP fluorescent cells relative to total number of cells (Hoechst)
In short: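 Screening format: EGFP mRNA transfection (50 ng/well) into HEK293 in 10% FBS-supplemented DMEM. Percent green fluorescent cells, normalised to Hoechst nuclear count, gave the value; Lipofectamine2000 was the reference transfectant.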

HEK293 cells [2] = assay: Preliminary screening as DNA vectors, GFP transfection of HEK293 cells; format: cell-based; details: HEK293 cells; lipid/DOPE liposome with 75 ng plasmid DNA (psin-EGFP-IRES-Puro); number of cells expressing GFP divided by total number of nuclei (Hoechst)
In short: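 First, amino lipid and DOPE were vortexed in sodium acetate buffer (pH 5.6) to form liposomes. Next, these were held with 75 ng EGFP plasmid at room temperature for 30 min. Finally, HEK293 cells were added, cultured at 37° C., Hoechst-stained, and GFP+/total nuclei scored by imaging.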

| Compound | Absolute mRNA transfection efficiency in HEK293 cells (HEK293 cells [1]) [%] | Absolute DNA transfection efficiency in HEK293 cells (HEK293 cells [2]) [%] |
| --- | --- | --- |
| CCCCCCCCCCCCCNc1nc(NCCCCCCCCCCCC)nc(NCCN2CCOCC2)n1 [Compound N12N13D2] | 0.0 | 0.1 |
| CCCCCCCCCCCCCNc1nc(NCCCCCCCCCCCC)nc(NCCN2CCCC2)n1 [Compound N12N13D3] | 3.1 | 1.7 |
| CCCCCCCCCCCCCNc1nc(NCCCCCCCCCCCC)nc(NCCN2CCCCC2)n1 [Compound N12N13D4] | 0.0 | 0.0 |
| CCCCCCCCCCCCCNc1nc(NCCCCCCCCCCCC)nc(NCCN2CCN(C)CC2)n1 [Compound N12N13D5] | 0.0 | 0.3 |
| CCCCCCCCCCCCCNc1nc(NCCCCCCCCCCCC)nc(NCCCN(C)C)n1 [Compound N12N13D6] | 1.0 | 0.5 |
| CCCCCCCCCCCCCNc1nc(NCCCCCCCCCCCC)nc(NCCN(CC)CC)n1 [Compound N12N13D7] | 0.3 | 0.2 |
| CCCCCCCCCCCCCNc1nc(NCCCCCCCCCCCC)nc(NCCCN2CCOCC2)n1 [Compound N12N13D8] | 0.0 | 0.3 |
| CCCCCCCCCCCCCNc1nc(NCCCCCCCCCCCC)nc(NCCCN2CCN(C)CC2)n1 [Compound N12N13D9] | 1.8 | 0.3 |
| CCCCCCCCCCCCCNc1nc(NCCCCCCCCCCCC)nc(NCC2CCN(C)CC2)n1 [Compound N12N13D10] | 0.2 | 0.2 |
| CCCCCCCCCCCCCCCNc1nc(NCCCCCCCCCCCC)nc(NCCN(C)C)n1 [Compound N12N15D1] | 1.0 | 1.5 |
| CCCCCCCCCCCCCCCNc1nc(NCCCCCCCCCCCC)nc(NCCN2CCOCC2)n1 [Compound N12N15D2] | 0.4 | 0.3 |
| CCCCCCCCCCCCCCCNc1nc(NCCCCCCCCCCCC)nc(NCCN2CCCC2)n1 [Compound N12N15D3] | 6.5 | 1.1 |
| CCCCCCCCCCCCCCCNc1nc(NCCCCCCCCCCCC)nc(NCCN2CCCCC2)n1 [Compound N12N15D4] | 1.3 | 1.4 |
| CCCCCCCCCCCCCCCNc1nc(NCCCCCCCCCCCC)nc(NCCN2CCN(C)CC2)n1 [Compound N12N15D5] | 3.1 | 0.4 |
| CCCCCCCCCCCCCCCNc1nc(NCCCCCCCCCCCC)nc(NCCCN(C)C)n1 [Compound N12N15D6] | 2.3 | 0.9 |
| CCCCCCCCCCCCCCCNc1nc(NCCCCCCCCCCCC)nc(NCCN(CC)CC)n1 [Compound N12N15D7] | 1.4 | 0.8 |
| CCCCCCCCCCCCCCCNc1nc(NCCCCCCCCCCCC)nc(NCCCN2CCOCC2)n1 [Compound N12N15D8] | 0.9 | 1.4 |
| CCCCCCCCCCCCCCCNc1nc(NCCCCCCCCCCCC)nc(NCCCN2CCN(C)CC2)n1 [Compound N12N15D9] | 0.9 | 1.5 |
| CCCCCCCCCCCCCCCNc1nc(NCCCCCCCCCCCC)nc(NCC2CCN(C)CC2)n1 [Compound N12N15D10] | 1.2 | 0.7 |
| CCCCCCCCCCCCCCCCNc1nc(NCCCCCCCCCCCC)nc(NCCN(C)C)n1 [Compound N12N16D1] | 4.4 | 2.6 |
| CCCCCCCCCCCCCCCCNc1nc(NCCCCCCCCCCCC)nc(NCCN2CCOCC2)n1 [Compound N12N16D2] | 0.0 | 0.9 |
| CCCCCCCCCCCCCCCCNc1nc(NCCCCCCCCCCCC)nc(NCCN2CCCC2)n1 [Compound N12N16D3] | 3.3 | 1.2 |
| CCCCCCCCCCCCCCCCNc1nc(NCCCCCCCCCCCC)nc(NCCN2CCCCC2)n1 [Compound N12N16D4] | 0.7 | 1.2 |
| CCCCCCCCCCCCCCCCNc1nc(NCCCCCCCCCCCC)nc(NCCN2CCN(C)CC2)n1 [Compound N12N16D5] | 1.4 | 0.1 |

| Compound | Absolute mRNA transfection efficiency in HEK293 cells (HEK293 cells [1]) [%] | Absolute DNA transfection efficiency in HEK293 cells (HEK293 cells [2]) [%] |
| --- | --- | --- |
| CCCCCCCCCCCCCCCCNc1nc(NCCCCCCCCCCCC)nc(NCCCN(C)C)n1 [Compound N12N16D6] | 1.9 | 1.9 |
| CCCCCCCCCCCCCCCCNc1nc(NCCCCCCCCCCCC)nc(NCCN(CC)CC)n1 [Compound N12N16D7] | 0.3 | 0.4 |
| CCCCCCCCCCCCCCCCNc1nc(NCCCCCCCCCCCC)nc(NCCCN2CCOCC2)n1 [Compound N12N16D8] | 0.9 | 0.7 |
| CCCCCCCCCCCCCCCCNc1nc(NCCCCCCCCCCCC)nc(NCCCN2CCN(C)CC2)n1 [Compound N12N16D9] | 0.7 | 0.9 |
| CCCCCCCCCCCCCCCCNc1nc(NCCCCCCCCCCCC)nc(NCC2CCN(C)CC2)n1 [Compound N12N16D10] | 0.6 | 0.0 |
| CCCCCCCCCCCCCCCCCCNc1nc(NCCCCCCCCCCCC)nc(NCCN(C)C)n1 [Compound N12N18D1] | 9.4 | 1.4 |
| CCCCCCCCCCCCCCCCCCNc1nc(NCCCCCCCCCCCC)nc(NCCN2CCOCC2)n1 [Compound N12N18D2] | 0.9 | 0.6 |
| CCCCCCCCCCCCCCCCCCNc1nc(NCCCCCCCCCCCC)nc(NCCN2CCCC2)n1 [Compound N12N18D3] | 13.4 | 3.5 |
| CCCCCCCCCCCCCCCCCCNc1nc(NCCCCCCCCCCCC)nc(NCCN2CCCCC2)n1 [Compound N12N18D4] | 1.9 | 0.9 |
| CCCCCCCCCCCCCCCCCCNc1nc(NCCCCCCCCCCCC)nc(NCCN2CCN(C)CC2)n1 [Compound N12N18D5] | 1.9 | 0.0 |
| CCCCCCCCCCCCCCCCCCNc1nc(NCCCCCCCCCCCC)nc(NCCCN(C)C)n1 [Compound N12N18D6] | 4.8 | 1.5 |
| CCCCCCCCCCCCCCCCCCNc1nc(NCCCCCCCCCCCC)nc(NCCN(CC)CC)n1 [Compound N12N18D7] | 1.4 | 1.2 |
| CCCCCCCCCCCCCCCCCCNc1nc(NCCCCCCCCCCCC)nc(NCCCN2CCOCC2)n1 [Compound N12N18D8] | 0.5 | 1.5 |
| CCCCCCCCCCCCCCCCCCNc1nc(NCCCCCCCCCCCC)nc(NCCCN2CCN(C)CC2)n1 [Compound N12N18D9] | 0.7 | 0.1 |
| CCCCCCCCCCCCCCCCCCNc1nc(NCCCCCCCCCCCC)nc(NCC2CCN(C)CC2)n1 [Compound N12N18D10] | 1.0 | 0.0 |
| CCCCCCCCCCCCCNc1nc(NCCCCCCCCCCCCC)nc(NCCN(C)C)n1 [Compound N13N13D1] | 0.4 | 1.5 |
| CCCCCCCCCCCCCNc1nc(NCCCCCCCCCCCCC)nc(NCCN2CCOCC2)n1 [Compound N13N13D2] | 0.9 | 0.0 |
| CCCCCCCCCCCCCNc1nc(NCCCCCCCCCCCCC)nc(NCCN2CCCC2)n1 [Compound N13N13D3] | 3.5 | 0.7 |
| CCCCCCCCCCCCCNc1nc(NCCCCCCCCCCCCC)nc(NCCN2CCCCC2)n1 [Compound N13N13D4] | 3.3 | 1.5 |
| CCCCCCCCCCCCCNc1nc(NCCCCCCCCCCCCC)nc(NCCN2CCN(C)CC2)n1 [Compound N13N13D5] | 1.7 | 0.9 |
| CCCCCCCCCCCCCNc1nc(NCCCCCCCCCCCCC)nc(NCCCN(C)C)n1 [Compound N13N13D6] | 0.2 | 2.5 |
| CCCCCCCCCCCCCNc1nc(NCCCCCCCCCCCCC)nc(NCCN(CC)CC)n1 [Compound N13N13D7] | 1.1 | 0.1 |
| CCCCCCCCCCCCCNc1nc(NCCCCCCCCCCCCC)nc(NCCCN2CCOCC2)n1 [Compound N13N13D8] | 0.3 | 1.4 |
